Results as given in patent US20120196854A1, “PHARMACEUTICAL COMPOSITION COMPRISING AROMATIC HETEROCYCLIC COMPOUND” (Kyowa Hakko Kirin Co., Ltd., priority 2009, published 2012).

Experiments:
mouse model of asthma = test: Airway hyperresponsiveness and eosinophil infiltration in the airway in a mouse model of asthma; type: in vivo; details: 3 mg/kg orally once daily during antigen exposure, OVA-sensitized BALB/c mice
Experimental: The mouse model of asthma was prepared as follows. For experimental use, 6-week-old male BALB/c mice were purchased from Charles River Japan (Atsugi, Kanagawa). Equal amounts of a 0.5 mg/mL solution of ovalbumin in physiological saline and a 10 mg/mL suspension of aluminum hydroxide in physiological saline were mixed to give a sensitizing fluid. With well mixing of the sensitization fluid, 0.2 mL of the fluid was intraperitoneally administered to each mouse for sensitization. About 1 week after the initial sensitization, the same procedure was performed for additional sensitization. […]
The expression of airway hyperresponsiveness (increase of airway reactivity) was evaluated by measuring, under anesthesia, airway reactivity to methacholine (MCh: acetyl-β-methylcholine chloride, Cat. No. A-2251, Sigma-Aldrich) using a respiratory function analyzer [BioSystem XA; version 2.0.2.21 for Windows (registered trademark), preamplifier: MAX2215, body plethysmography box: PLY3011, pressure transducer: Validyne DP45-28, flaw transducer: Validyne DP45-14, Buxco Electronics, Troy, N.Y., USA]. […] As an indicator of airway reactivity, respiratory resistance (RL) values recorded every 5 seconds by the respiratory function analyzer were used. After fixing a mouse to the device and confirming the RL stability, the value after intravenous administration of a physiological saline solution was recorded first. […]

mdx mice = test: Myodegeneration in spontaneous muscular dystrophy model (mdx) mice; type: in vivo, mouse; details: in drinking water, about 30 mg/kg
Experimental: mdx Mice (C57BL/10ScSn-Dmd^mdx) were purchased in male and female pairs from Jackson Laboratories, and bred in-house for use. After weaned at 3 weeks old, male mdx mice were selected, which were subjected to the test from 4 weeks old. Compound 133 was dissolved in MEYLON 84 (registered trademark, 8.4% sodium bicarbonate injection, Otsuka) to prepare 12 mL of a 3 mg/mL solution thereof. This was added to and mixed with 188 mL of sterile tap water (final concentration of the compound: 180 μg/mL), and the mixture was administered by unrestricted intake (actual dose of the compound was about 30 mg/kg). […]
As evaluation of the diaphragm muscle, the degenerated and/or necrotic muscle area ratio of the diaphragm was determined. […] The thus prepared specimen was digitally shot at 20-fold magnification using a digital microscope (VHX-1000, KEYENCE, Osaka) and the images were recorded in TIFF format. Using the nature that degenerated and/or necrotic muscle absorbs EB and turns blue (J. Anat., 2002, 200, 69-79), the area of the diaphragm piece and the area of blue region showing the distribution of degenerated and/or necrotic muscle were determined with an image analyzer (LUZEX AP, Nireco, Tokyo). […]
For evaluation of the posterior crural muscle, the degenerated and/or necrotic muscle area ratio of the gastrocnemius muscle was determined. […]

O=C(O)c1cc(-c2ccco2)nc2ccc3nn(-c4ccccc4)nc3c12 [Compound 133, 7-(furan-2-yl)-2-phenyl-2H-[1,2,3]triazolo[4,5-f]quinoline-9-carboxylic acid]
inhibition of the expression of airway hyperresponsiveness (mouse model of asthma): 98% | inhibition of eosinophil infiltration in the airway (mouse model of asthma; BAL fluid): 55% | inhibition of degeneration and/or necrosis of the diaphragm (mdx mice): 40% | inhibition of degeneration and/or necrosis of the gastrocnemius muscle (mdx mice): 49%
